{"source": "patent US20050203175A1", "about": "“Parenteral composition of paracetamol” (priority 2001, published 2005)", "key": {"[1]": {"test": "Solubility in water and organic solvents", "format": "physicochemical", "from_the_text": "Paracetamol is soluble in Methanol, Ethanol, DMF, Ethylene chlorine, Benzyl ethanol and other organic solvents, but none of them can be used alone or in a mixture, because of their toxicity."}, "[2]": {"details": "cited from earlier work"}, "[3]": {"details": "cited from earlier work", "remark": "listed apart in the source"}, "[4]": {"tested_on": "liver cytochrome P-450", "details": "in vivo; cited from earlier work"}}, "data": [{"smiles": "CC(=O)Nc1ccc(O)cc1", "note": "[Paracetamol]", "values": [{"measurement": "solubility in organic solvents", "setting": "[1]; Methanol, Ethanol, DMF, Ethylene chlorine, Benzyl ethanol and other organic solvents", "value": "soluble"}, {"measurement": "solubility in water", "setting": "[1]; water", "value": "practically insoluble"}, {"measurement": "absorption when intramuscularly administered", "setting": "[2]; intramuscular, blood level similar to that after oral administration", "value": "well absorbed"}, {"measurement": "loss of the drug observed after oral administration", "setting": "[2]; oral administration, does not exist with injectable Paracetamol", "value": 20, "unit": "%"}, {"measurement": "excreted through urines as conjugated derivative of glucouronic acid", "setting": "[3]; glucouronic acid conjugate", "value": 60, "unit": "%"}, {"measurement": "excreted through urines as conjugated derivative of sulfuric acid", "setting": "[3]; sulfuric acid conjugate", "value": 35, "unit": "%"}, {"measurement": "excreted through urines as conjugated derivatives", "setting": "[3]; total of sulfuric and glucouronic acid conjugates", "value": 95, "unit": "%"}, {"measurement": "excreted unchangeable", "setting": "[3]; unchanged drug", "value": 2, "unit": "%"}, {"measurement": "part oxidized by the liver cytochrome P-450 to a toxic intermediate metabolite", "setting": "[4]", "value": "approx. 3%"}]}]}
